Tests used:
[1] = biological target: GDP-bound NRAS wild-type protein (Homo sapiens, UniProt P01111); assay: Binding to NRAS by surface plasmon resonance (SPR), Single Cycle Kinetics; conditions: KD ratio NRAS/KRAS, SPR
[2] = biological target: GDP-bound HRAS wild-type protein (Homo sapiens, UniProt P01112); assay: Binding to HRAS by surface plasmon resonance (SPR), Single Cycle Kinetics; conditions: KD ratio HRAS/KRAS, SPR
Sequence of GDP-bound HRAS wild-type protein (P01112 whole entry): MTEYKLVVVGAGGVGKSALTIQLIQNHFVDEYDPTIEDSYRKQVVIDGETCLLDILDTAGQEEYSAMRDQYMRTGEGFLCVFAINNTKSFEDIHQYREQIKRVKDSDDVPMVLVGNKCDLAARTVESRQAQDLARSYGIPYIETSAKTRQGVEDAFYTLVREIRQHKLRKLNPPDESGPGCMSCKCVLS

Sequence of GDP-bound NRAS wild-type protein (P01111 whole entry): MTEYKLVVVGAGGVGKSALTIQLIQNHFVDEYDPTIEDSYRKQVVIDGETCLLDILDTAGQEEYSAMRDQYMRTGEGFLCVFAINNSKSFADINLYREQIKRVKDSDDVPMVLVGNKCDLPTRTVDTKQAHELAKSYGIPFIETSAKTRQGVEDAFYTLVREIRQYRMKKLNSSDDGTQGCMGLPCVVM

CC[C@H](C)[C@@H]1NC(=O)[C@H](CC(C)C)N(C)C(=O)C[C@@H](C(=O)N2CCOCC2)N(C)C(=O)[C@H](C2CCCC2)N(C)C(=O)C2(CCCC2)NC(=O)[C@@H]2CCCN2C(=O)[C@H](CCc2ccc(C(F)(F)F)c(Cl)c2)NC(=O)CN(C)C(=O)[C@H](Cc2ccc(F)cc2)N2CCCC[C@@H](C2=O)N(C)C(=O)CN(C)C1=O [PP0530]
NRAS/KRAS (ratio of KD value with respect to GDP-bound NRAS wild-type protein to KD value with respect to KRAS) [1]: C (A compound having a KD ratio of 0.1 or more and less than 3 is denoted as C) | HRAS/KRAS (ratio of KD value with respect to GDP-bound HRAS wild-type protein to KD value with respect to KRAS) [2]: B (a compound having 3 or more and less than 10 is denoted as B)

CC[C@H](C)[C@@H]1NC(=O)[C@H](CC(C)C)N(C)C(=O)C[C@@H](C(=O)N2CCOCC2)N(C)C(=O)[C@H](C2CCCC2)N(C)C(=O)C2(CCCC2)NC(=O)[C@@H]2CCCN2C(=O)[C@H](CCc2ccc(C(F)(F)F)c(Cl)c2)NC(=O)CN(C)C(=O)[C@H](Cc2ccc(Cl)cc2)N2CCCC[C@@H](C2=O)N(C)C(=O)CN(C)C1=O [PP0532]
NRAS/KRAS (ratio of KD value with respect to GDP-bound NRAS wild-type protein to KD value with respect to KRAS) [1]: C (A compound having a KD ratio of 0.1 or more and less than 3 is denoted as C) | HRAS/KRAS (ratio of KD value with respect to GDP-bound HRAS wild-type protein to KD value with respect to KRAS) [2]: B (a compound having 3 or more and less than 10 is denoted as B)

CC[C@H](C)[C@@H]1NC(=O)[C@H](CC(C)C)N(C)C(=O)C[C@@H](C(=O)N2CCOCC2)N(C)C(=O)[C@H](C2CCCC2)N(C)C(=O)C2(CCCC2)NC(=O)[C@@H]2CCCN2C(=O)[C@H](CCc2ccc(C(F)(F)F)c(Cl)c2)NC(=O)CN(C)C(=O)[C@H](Cc2ccc(Cl)cc2)N2CC=CC[C@@H](C2=O)N(C)C(=O)CN(C)C1=O [PP0533]
NRAS/KRAS (ratio of KD value with respect to GDP-bound NRAS wild-type protein to KD value with respect to KRAS) [1]: C (A compound having a KD ratio of 0.1 or more and less than 3 is denoted as C) | HRAS/KRAS (ratio of KD value with respect to GDP-bound HRAS wild-type protein to KD value with respect to KRAS) [2]: C (A compound having a KD ratio of 0.1 or more and less than 3 is denoted as C)

CC[C@H](C)[C@@H]1NC(=O)[C@H](CC(C)C)N(C)C(=O)C[C@@H](C(=O)N2CCOCC2)N(C)C(=O)[C@H](C2CCCC2)N(C)C(=O)C2(CCCC2)NC(=O)[C@@H]2CCCN2C(=O)[C@H](CCc2ccc(C(F)(F)F)c(Cl)c2)NC(=O)CN(C)C(=O)[C@H](Cc2ccc(OC)cc2)N2CCCC[C@@H](C2=O)N(C)C(=O)CN(C)C1=O [PP0534]
NRAS/KRAS (ratio of KD value with respect to GDP-bound NRAS wild-type protein to KD value with respect to KRAS) [1]: B (a compound having 3 or more and less than 10 is denoted as B) | HRAS/KRAS (ratio of KD value with respect to GDP-bound HRAS wild-type protein to KD value with respect to KRAS) [2]: B (a compound having 3 or more and less than 10 is denoted as B)

CC[C@H](C)[C@@H]1NC(=O)[C@H](CC(C)C)N(C)C(=O)C[C@@H](C(=O)N2CCOCC2)N(C)C(=O)[C@H](C2CCCC2)N(C)C(=O)C2(CCCC2)NC(=O)[C@@H]2CCCN2C(=O)[C@H](CCc2ccc(C(F)(F)F)c(Cl)c2)NC(=O)CN(C)C(=O)[C@H](Cc2ccc(OC)cc2)N2CC=CC[C@@H](C2=O)N(C)C(=O)CN(C)C1=O [PP0535]
NRAS/KRAS (ratio of KD value with respect to GDP-bound NRAS wild-type protein to KD value with respect to KRAS) [1]: C (A compound having a KD ratio of 0.1 or more and less than 3 is denoted as C) | HRAS/KRAS (ratio of KD value with respect to GDP-bound HRAS wild-type protein to KD value with respect to KRAS) [2]: B (a compound having 3 or more and less than 10 is denoted as B)

CC[C@H](C)[C@@H]1NC(=O)[C@H](CC(C)C)N(C)C(=O)C[C@@H](C(=O)N2CCOCC2)N(C)C(=O)[C@H](C2CCCC2)N(C)C(=O)C2(CCCC2)NC(=O)[C@@H]2CCCN2C(=O)[C@H](CCc2ccc(C(F)(F)F)c(Cl)c2)NC(=O)CN(C)C(=O)[C@H](Cc2ccc(OC(F)(F)F)cc2)N2CCCC[C@@H](C2=O)N(C)C(=O)CN(C)C1=O [PP0536]
NRAS/KRAS (ratio of KD value with respect to GDP-bound NRAS wild-type protein to KD value with respect to KRAS) [1]: B (a compound having 3 or more and less than 10 is denoted as B) | HRAS/KRAS (ratio of KD value with respect to GDP-bound HRAS wild-type protein to KD value with respect to KRAS) [2]: B (a compound having 3 or more and less than 10 is denoted as B)

CC[C@H](C)[C@@H]1NC(=O)[C@H](CC(C)C)N(C)C(=O)C[C@@H](C(=O)N2CCOCC2)N(C)C(=O)[C@H](C2CCCC2)N(C)C(=O)C2(CCCC2)NC(=O)[C@@H]2CCCN2C(=O)[C@H](CCc2ccc(C(F)(F)F)c(Cl)c2)NC(=O)CN(C)C(=O)[C@H](Cc2ccc(OC(F)(F)F)cc2)N2CC=CC[C@@H](C2=O)N(C)C(=O)CN(C)C1=O [PP0537]
NRAS/KRAS (ratio of KD value with respect to GDP-bound NRAS wild-type protein to KD value with respect to KRAS) [1]: C (A compound having a KD ratio of 0.1 or more and less than 3 is denoted as C) | HRAS/KRAS (ratio of KD value with respect to GDP-bound HRAS wild-type protein to KD value with respect to KRAS) [2]: C (A compound having a KD ratio of 0.1 or more and less than 3 is denoted as C)

CC[C@H](C)[C@@H]1NC(=O)[C@H](CC(C)C)N(C)C(=O)C[C@@H](C(=O)N2CCOCC2)N(C)C(=O)[C@H](C2CCCC2)N(CC)C(=O)C2(CCCC2)NC(=O)[C@@H]2CCCN2C(=O)[C@H](CCc2cc(F)c(C(F)(F)F)c(F)c2)NC(=O)CN(C)C(=O)[C@H](Cc2ccc(C(F)(F)F)cc2)N2CCCC[C@@H](C2=O)N(C)C(=O)CN(C)C1=O [PP0538]
NRAS/KRAS (ratio of KD value with respect to GDP-bound NRAS wild-type protein to KD value with respect to KRAS) [1]: B (a compound having 3 or more and less than 10 is denoted as B) | HRAS/KRAS (ratio of KD value with respect to GDP-bound HRAS wild-type protein to KD value with respect to KRAS) [2]: B (a compound having 3 or more and less than 10 is denoted as B)

CC[C@H](C)[C@@H]1NC(=O)[C@H](CC(C)C)N(C)C(=O)C[C@@H](C(=O)N2CCOCC2)N(CC)C(=O)[C@H](C2CCCC2)N(C)C(=O)C2(CCCC2)NC(=O)[C@@H]2CCCN2C(=O)[C@H](CCc2cc(F)c(C(F)(F)F)c(F)c2)NC(=O)CN(C)C(=O)[C@H](Cc2ccc(C(F)(F)F)cc2)N2CCCC[C@@H](C2=O)N(C)C(=O)CN(C)C1=O [PP0539]
NRAS/KRAS (ratio of KD value with respect to GDP-bound NRAS wild-type protein to KD value with respect to KRAS) [1]: B (a compound having 3 or more and less than 10 is denoted as B) | HRAS/KRAS (ratio of KD value with respect to GDP-bound HRAS wild-type protein to KD value with respect to KRAS) [2]: B (a compound having 3 or more and less than 10 is denoted as B)

CC[C@H](C)[C@@H]1NC(=O)[C@H](CC(C)C)N(C)C(=O)C[C@@H](C(=O)N2CCOCC2)N(C)C(=O)[C@H](C2CCCC2)NC(=O)C2(CCCC2)NC(=O)[C@@H]2CCCN2C(=O)[C@H](CCc2cc(F)c(C(F)(F)F)c(F)c2)NC(=O)CN(C)C(=O)[C@H](Cc2ccc(C(F)(F)F)cc2)N2CCCC[C@@H](C2=O)N(C)C(=O)CN(C)C1=O [PP0540]
NRAS/KRAS (ratio of KD value with respect to GDP-bound NRAS wild-type protein to KD value with respect to KRAS) [1]: B (a compound having 3 or more and less than 10 is denoted as B) | HRAS/KRAS (ratio of KD value with respect to GDP-bound HRAS wild-type protein to KD value with respect to KRAS) [2]: B (a compound having 3 or more and less than 10 is denoted as B)

CC[C@H](C)[C@@H]1NC(=O)[C@H](CC(C)C)N(C)C(=O)C[C@@H](C(=O)N2CCOCC2)NC(=O)[C@H](C2CCCC2)N(C)C(=O)C2(CCCC2)NC(=O)[C@@H]2CCCN2C(=O)[C@H](CCc2cc(F)c(C(F)(F)F)c(F)c2)NC(=O)CN(C)C(=O)[C@H](Cc2ccc(C(F)(F)F)cc2)N2CCCC[C@@H](C2=O)N(C)C(=O)CN(C)C1=O [PP0541]
NRAS/KRAS (ratio of KD value with respect to GDP-bound NRAS wild-type protein to KD value with respect to KRAS) [1]: B (a compound having 3 or more and less than 10 is denoted as B) | HRAS/KRAS (ratio of KD value with respect to GDP-bound HRAS wild-type protein to KD value with respect to KRAS) [2]: B (a compound having 3 or more and less than 10 is denoted as B)

CC[C@H](C)[C@@H]1NC(=O)[C@H](CC(C)C)N(C)C(=O)C[C@@H](C(=O)N2CCOCC2)N(C)C(=O)[C@H](C2CCCC2)N(C)C(=O)C2(CCCC2)NC(=O)[C@@H]2CCCN2C(=O)[C@H](CCc2cc(F)c(C(F)(F)F)c(F)c2)NC(=O)CN(C)C(=O)[C@H](Cc2ccc(C(F)(F)F)cc2)N2CCCC[C@@H](C2=O)N(C)C(=O)CNC1=O [PP0542]
NRAS/KRAS (ratio of KD value with respect to GDP-bound NRAS wild-type protein to KD value with respect to KRAS) [1]: B (a compound having 3 or more and less than 10 is denoted as B) | HRAS/KRAS (ratio of KD value with respect to GDP-bound HRAS wild-type protein to KD value with respect to KRAS) [2]: B (a compound having 3 or more and less than 10 is denoted as B)

CC[C@H](C)[C@@H]1NC(=O)[C@H](CC(C)C)N(C)C(=O)C[C@@H](C(=O)N2CCOCC2)N(C)C(=O)[C@H](C2CCCC2)N(C)C(=O)C2(CCCC2)NC(=O)[C@@H]2CCCN2C(=O)[C@H](CCc2cc(F)c(C(F)(F)F)c(F)c2)NC(=O)CN(C)C(=O)[C@H](Cc2ccc(C(F)(F)F)cc2)N2CCCC[C@@H](C2=O)N(C)C(=O)[C@H](C)NC1=O [PP0543]
NRAS/KRAS (ratio of KD value with respect to GDP-bound NRAS wild-type protein to KD value with respect to KRAS) [1]: B (a compound having 3 or more and less than 10 is denoted as B) | HRAS/KRAS (ratio of KD value with respect to GDP-bound HRAS wild-type protein to KD value with respect to KRAS) [2]: B (a compound having 3 or more and less than 10 is denoted as B)

CC[C@H](C)[C@@H]1NC(=O)[C@H](CC(C)C)N(C)C(=O)C[C@@H](C(=O)N2CCOCC2)N(C)C(=O)[C@H](C2CCCC2)N(C)C(=O)C2(CCCC2)NC(=O)[C@@H]2CCCN2C(=O)[C@H](CCc2cc(F)c(C(F)(F)F)c(F)c2)NC(=O)CN(C)C(=O)[C@H](Cc2ccc(C(F)(F)F)cc2)N2CCCC[C@@H](C2=O)N(C)C(=O)[C@H](C)N(C)C1=O [PP0544]
NRAS/KRAS (ratio of KD value with respect to GDP-bound NRAS wild-type protein to KD value with respect to KRAS) [1]: B (a compound having 3 or more and less than 10 is denoted as B) | HRAS/KRAS (ratio of KD value with respect to GDP-bound HRAS wild-type protein to KD value with respect to KRAS) [2]: B (a compound having 3 or more and less than 10 is denoted as B)

CC[C@H](C)[C@@H]1NC(=O)[C@H](CC(C)C)N(C)C(=O)C[C@@H](C(=O)N2CCOCC2)N(C)C(=O)[C@H](C2CCCC2)N(C)C(=O)C2(CCCC2)NC(=O)[C@@H]2CCCN2C(=O)[C@H](CCc2cc(F)c(C(F)(F)F)c(F)c2)NC(=O)CN(C)C(=O)[C@H](Cc2ccc(C(F)(F)F)cc2)N2CCCC[C@@H](C2=O)N(C)C(=O)CN(CC)C1=O [PP0545]
NRAS/KRAS (ratio of KD value with respect to GDP-bound NRAS wild-type protein to KD value with respect to KRAS) [1]: B (a compound having 3 or more and less than 10 is denoted as B) | HRAS/KRAS (ratio of KD value with respect to GDP-bound HRAS wild-type protein to KD value with respect to KRAS) [2]: B (a compound having 3 or more and less than 10 is denoted as B)

CC[C@H](C)[C@@H]1NC(=O)[C@H](CC(C)C)N(C)C(=O)C[C@@H](C(=O)N2CCOCC2)N(C)C(=O)[C@H](C2CCCC2)N(C)C(=O)C2(CCCC2)NC(=O)[C@@H]2CCCN2C(=O)[C@H](CCc2cc(F)c(C(F)(F)F)c(F)c2)NC(=O)CN(C)C(=O)[C@H](Cc2ccc(C(F)(F)F)cc2)N2CCCC[C@@H](C2=O)N(C)C(=O)[C@@H]2CCCN2C1=O [PP0547]
NRAS/KRAS (ratio of KD value with respect to GDP-bound NRAS wild-type protein to KD value with respect to KRAS) [1]: B (a compound having 3 or more and less than 10 is denoted as B) | HRAS/KRAS (ratio of KD value with respect to GDP-bound HRAS wild-type protein to KD value with respect to KRAS) [2]: B (a compound having 3 or more and less than 10 is denoted as B)

Reference: patent US20250230193A1, “CYCLIC COMPOUND HAVING SELECTIVE KRAS INHIBITORY EFFECT ON HRAS AND NRAS” (CHUGAI SEIYAKU KABUSHIKI KAISHA, priority 2022, published 2025)
